Results from article PMC9474705 (British journal of pharmacology, 2022).

Columns and labels:
β2AR (β2AR stable cells) = β2AR (β2AR stable cells) (Homo sapiens, UniProt P07550); experiment: [3H]DHA competition on membranes; format: binding
β1AR-RlucII = β1AR-RlucII (Homo sapiens, UniProt P08588); experiment: BRET Gs; format: cell-based; settings: agonist, […] min, mini-Gs
β2AR-RlucII = β2AR-RlucII (Homo sapiens, UniProt P07550); experiment: BRET Gs; format: cell-based; settings: agonist, […] min, mini-Gs
Sequence of β2AR-RlucII (P07550 whole entry): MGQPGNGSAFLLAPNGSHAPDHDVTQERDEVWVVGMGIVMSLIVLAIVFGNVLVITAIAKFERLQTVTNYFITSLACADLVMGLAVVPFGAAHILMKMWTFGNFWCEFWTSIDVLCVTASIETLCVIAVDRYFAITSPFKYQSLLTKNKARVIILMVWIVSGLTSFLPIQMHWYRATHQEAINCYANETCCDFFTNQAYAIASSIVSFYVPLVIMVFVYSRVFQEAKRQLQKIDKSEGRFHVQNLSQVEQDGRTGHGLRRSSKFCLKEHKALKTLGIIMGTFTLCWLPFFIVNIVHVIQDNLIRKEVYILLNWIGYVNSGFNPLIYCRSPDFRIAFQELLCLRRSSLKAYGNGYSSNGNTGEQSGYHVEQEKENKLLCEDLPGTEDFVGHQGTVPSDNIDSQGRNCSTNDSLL

Sequence of β2AR (β2AR stable cells) (P07550 whole entry): as above
Sequence of β1AR-RlucII (P08588 whole entry): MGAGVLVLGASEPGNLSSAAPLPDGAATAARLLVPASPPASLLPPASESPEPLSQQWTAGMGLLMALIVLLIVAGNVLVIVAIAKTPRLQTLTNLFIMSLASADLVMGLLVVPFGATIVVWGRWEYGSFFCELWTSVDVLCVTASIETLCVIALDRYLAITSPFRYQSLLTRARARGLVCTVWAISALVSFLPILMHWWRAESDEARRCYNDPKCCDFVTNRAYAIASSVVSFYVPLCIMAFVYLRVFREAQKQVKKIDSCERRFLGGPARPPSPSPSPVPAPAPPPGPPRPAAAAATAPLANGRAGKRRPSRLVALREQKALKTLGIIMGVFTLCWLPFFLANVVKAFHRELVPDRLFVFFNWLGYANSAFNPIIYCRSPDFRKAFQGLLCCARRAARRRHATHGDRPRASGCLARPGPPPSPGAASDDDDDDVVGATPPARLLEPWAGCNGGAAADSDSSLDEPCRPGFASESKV

SMILES | IC50 (β2AR (β2AR stable cells)) [µM] | EC50 (β1AR-RlucII) | EC50 (β2AR-RlucII)
Oc1ccc(CC2NCCc3cc(O)c(O)cc32)cc1 (stereo not shown) [Higenamine] | 5.01 | – | –
CC(CCc1ccc(O)cc1)NCCc1ccc(O)c(O)c1 (stereo not shown) [Dobutamine] | 5.01 | DOB was slightly more efficacious for β1AR | –
CC(CCc1ccccc1)NC(C)C(O)c1ccc(O)cc1 (stereo not shown) [Buphenine] | 0.251 | – | –
CC(NCCc1ccc(O)cc1)C(O)c1ccc(O)cc1 (stereo not shown) [Ritodrine] | 1.26 | – | –
CCCCNCC(O)c1ccc(O)cc1 (stereo not shown) [Bamethane] | 31.6 | – | all compounds showed efficacy in recruiting Gαs to the receptor
